The results in this text go back to patent publication US9951064B2, “Azaindazole compounds as inhibitors of T790M containing EGFR mutants” (Genentech, Inc., priority 2013, dated 2018).

Like-named read-outs stand apart in the source and are kept apart here. A value given as a limit tells only on which side of the number the result lay.

The target in one experiment is T1, EGFR T790M L858R (Homo sapiens, UniProt P00533, L858R/T790M).
T1 construct: purchased Life Technologies PV4879
Briefly: EGFR T790M L858R biochemical assay (Caliper mobility shift). To be noted: 5 μM ATP; apparent Ki (Morrison fit) converted by Cheng-Prusoff, Km of ATP 1.3 μM. The procedure, abridged:
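Reactions run 30 minutes at room temperature (22 °C), stopped with 80 mM EDTA. Phosphorylated product and substrate separated electrophoretically and quantified by Caliper mobility shift.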

Another experiment deals with T2, EGFR del746-750 T790M (Homo sapiens, UniProt P00533, DEL746-750/T790M).
T2 construct: purchased Carna Biosciences 08-528
T2 sequence (P00533 with tags, fused parts or gaps DEL746-750/T790M limits assumed): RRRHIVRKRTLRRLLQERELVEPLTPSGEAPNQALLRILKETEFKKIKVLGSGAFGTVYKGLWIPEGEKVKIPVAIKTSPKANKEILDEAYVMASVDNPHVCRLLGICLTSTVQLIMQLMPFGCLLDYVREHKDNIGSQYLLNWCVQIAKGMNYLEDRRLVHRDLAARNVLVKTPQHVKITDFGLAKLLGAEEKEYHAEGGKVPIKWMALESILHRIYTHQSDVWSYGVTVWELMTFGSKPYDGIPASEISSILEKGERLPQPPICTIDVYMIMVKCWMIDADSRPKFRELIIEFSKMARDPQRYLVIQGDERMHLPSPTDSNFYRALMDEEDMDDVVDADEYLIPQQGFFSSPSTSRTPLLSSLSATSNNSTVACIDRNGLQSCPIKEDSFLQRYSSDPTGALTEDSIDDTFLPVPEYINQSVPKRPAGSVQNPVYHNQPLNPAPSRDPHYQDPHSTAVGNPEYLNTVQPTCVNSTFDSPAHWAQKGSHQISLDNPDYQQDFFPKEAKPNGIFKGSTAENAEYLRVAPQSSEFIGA
The experiment can be described thus: EGFR del746-750 T790M biochemical assay (Caliper mobility shift). To be noted: 5 μM ATP; apparent Ki (Morrison fit) converted by Cheng-Prusoff, Km of ATP 2.1 μM; read-out: EGFR(T790M/d746-750) Ki. The essentials:
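Kinase reactions ran 30 min at room temperature (22 °C), then were stopped with 80 mM EDTA. Phosphorylated product and substrate were separated electrophoretically and quantified by Caliper mobility shift.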

Experiment [1] has as its target T3, phosphor-EGFR in H1975(L585R/T790M) mutant EGFR expressing cells (Homo sapiens, UniProt P00533, L858R/T790M).
T3 construct: host or cells: NCI-H1975
The experiment can be described thus: H1975 pEGFR MSD cellular assay. The note with it: NCI-H1975 cells, serum starved, 1 hour compound incubation, pEGFR Tyr1068 MSD; read-out: HI975 pEGFR EC50. It counts as cell-based. The procedure, abridged:
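NCI-H1975 cells, 30,000/well, serum-starved overnight, then treated 1 hour at 37° C with serially diluted compounds in serum-free medium (0.5% DMSO). Lysates captured on anti-phospho-EGFR plates overnight at 4° C, detected with SULFO-TAG anti-total EGFR by electrochemiluminescence. Inhibition vs untreated controls; EC50 from 4-parameter logistic fit.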

Experiment [2] deals with H1975 (EGFR T790M/L858R) cell proliferation. Briefly: H1975 proliferation assay (Cell Titer-Glo). Format: cell-based. To be noted: NCI-H1975 cells, 72 hour incubation, read-out: H1975 antiproliferative EC50. How it is done:
H1975 Proliferation Assays
All cell culture reagents were purchased from Invitrogen/Gibco. Cells are cultured at 37° C. at 5% CO2 and split as recommended by ATCC.
For orientation: ATP-based viability assays read luminescence as a measure of living cells.

T3 sequence (P00533 25-1210 T790M/L858R): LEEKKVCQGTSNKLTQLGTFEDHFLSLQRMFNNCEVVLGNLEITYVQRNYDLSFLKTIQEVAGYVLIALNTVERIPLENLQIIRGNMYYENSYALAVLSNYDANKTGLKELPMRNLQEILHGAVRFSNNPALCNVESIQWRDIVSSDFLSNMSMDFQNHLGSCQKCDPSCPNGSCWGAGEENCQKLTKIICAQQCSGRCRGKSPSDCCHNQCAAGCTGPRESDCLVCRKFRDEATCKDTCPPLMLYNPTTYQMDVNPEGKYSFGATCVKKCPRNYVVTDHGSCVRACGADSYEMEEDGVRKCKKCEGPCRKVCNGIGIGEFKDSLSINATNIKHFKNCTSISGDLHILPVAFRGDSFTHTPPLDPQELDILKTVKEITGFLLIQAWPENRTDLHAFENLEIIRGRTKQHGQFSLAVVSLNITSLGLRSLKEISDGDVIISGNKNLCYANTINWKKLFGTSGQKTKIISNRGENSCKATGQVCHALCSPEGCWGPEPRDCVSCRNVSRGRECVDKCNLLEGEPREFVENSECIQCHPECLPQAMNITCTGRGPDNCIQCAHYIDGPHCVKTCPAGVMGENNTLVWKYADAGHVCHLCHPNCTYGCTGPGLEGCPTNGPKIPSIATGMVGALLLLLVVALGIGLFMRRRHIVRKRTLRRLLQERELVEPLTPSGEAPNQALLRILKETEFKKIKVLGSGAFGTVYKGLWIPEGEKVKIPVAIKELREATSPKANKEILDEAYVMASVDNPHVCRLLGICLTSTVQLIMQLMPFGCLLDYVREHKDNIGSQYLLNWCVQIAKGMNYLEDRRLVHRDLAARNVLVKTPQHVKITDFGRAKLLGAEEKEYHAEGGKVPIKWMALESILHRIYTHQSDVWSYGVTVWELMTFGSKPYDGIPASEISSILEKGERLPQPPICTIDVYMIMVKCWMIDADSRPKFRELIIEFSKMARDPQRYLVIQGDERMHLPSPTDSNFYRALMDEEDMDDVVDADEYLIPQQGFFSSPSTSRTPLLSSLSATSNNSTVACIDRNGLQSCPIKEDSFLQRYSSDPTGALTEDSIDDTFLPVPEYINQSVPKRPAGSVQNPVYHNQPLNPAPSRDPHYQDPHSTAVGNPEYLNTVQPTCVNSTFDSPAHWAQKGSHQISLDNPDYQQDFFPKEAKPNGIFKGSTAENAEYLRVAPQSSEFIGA
T1 sequence (P00533 25-1210 T790M/L858R): as above

A word on the EC50: it is the concentration needed to bring the measured effect to its halfway point. Turning to `CC(C)n1nc(N2CC(F)(F)C2)c2cnc(Nc3ccnc(N4CC[C@H](O)[C@H](F)C4)n3)cc21` (racemic) [Example 174, (±)-cis-1-(4-(3-(3,3-Difluoroazetidin-1-yl)-1-isopropyl-1H-pyrazolo[4,3-c]pyridin-6-ylamino)pyrimidin-2-yl)-3-fluoropiperidin-4-ol], the Ki was 0.0018 µM on EGFR T790M L858R and 0.0038 µM on EGFR del746-750 T790M. The EC50 in experiment [1] was 0.141 µM; in experiment [2] (Homo sapiens, NCI-H1975, 72 h), 0.801 µM.
On the same counts, the results for `CCC(C)n1nc(N2C[C@@H](F)[C@@H](N)C2)c2cnc(Nc3ccnc(N4CCC(C)(O)CC4)n3)cc21` (relative stereo) [Example 177, 1-(4-(3-(cis-3-Amino-4-fluoropyrrolidin-1-yl)-1-sec-butyl-1H-pyrazolo[4,3-c]pyridin-6-ylamino)pyrimidin-2-yl)-4-methylpiperidin-4-ol] are 0.0017 µM, 0.0021 µM, 0.0872 µM and 0.489 µM.
On the same counts, the results for `CC(C)n1nc(N2CC(C)(C)NC2=O)c2cnc(Nc3ccnc(N4CCC(O)C(F)C4)n3)cc21` (racemic) [Example 88, (±)-1-(6-(2-(cis-3-Fluoro-4-hydroxypiperidin-1-yl)pyrimidin-4-ylamino)-1-isopropyl-1H-pyrazolo[4,3-c]pyridin-3-yl)-4,4-dimethylimidazolidin-2-one] are 0.0018 µM, 0.0043 µM, 0.187 µM and 0.489 µM.
On the same counts, the results for `C[C@@H](n1nc(N2CC[C@@H](O)C2)c2cnc(Nc3ccnc(N4CC[C@](C)(O)[C@H](F)C4)n3)cc21)C(F)(F)F` (racemic) [Example 140, (3RS,4SR)-3-Fluoro-1-(4-(3-((R)-3-hydroxypyrrolidin-1-yl)-1-((R*)-1,1,1-trifluoropropan-2-yl)-1H-pyrazolo[4,3-c]pyridin-6-ylamino)pyrimidin-2-yl)-4-methylpiperidin-4-ol] are 0.0031 µM, 0.0061 µM, 0.288 µM and 0.649 µM.
Turning to `CCC(C)n1nc(N2CC[C@@H](O)C2)c2cnc(Nc3ccnc(N4CC[C@H](O)[C@H](F)C4)n3)cc21` (stereo partly drawn) [Example 196, (3R,4S)-1-(4-((1-(sec-Butyl)-3-((R)-3-hydroxypyrrolidin-1-yl)-1H-pyrazolo[4,3-c]pyridin-6-yl)amino)pyrimidin-2-yl)-3-fluoropiperidin-4-ol], the Ki worked out at 0.0009 µM on EGFR T790M L858R and 0.0011 µM on EGFR del746-750 T790M. Further, the 50% effective concentration (EC50) in experiment [1] worked out at 0.0125 µM; in experiment [2] (Homo sapiens, NCI-H1975, 72 h) it was 0.263 µM.
In the case of `CC(O)C1CN(c2nn(C(C)C)c3cc(Nc4ccnc(-c5cnn(S(=O)(=O)C6CC6)c5)n4)ncc23)C1` (centres unmarked) [Example 113, 1-(1-(6-(2-(1-(Cyclopropylsulfonyl)-1H-pyrazol-4-yl)pyrimidin-4-ylamino)-1-isopropyl-1H-pyrazolo[4,3-c]pyridin-3-yl)azetidin-3-yl)ethanol], the values for the Ki at EGFR T790M L858R and at EGFR del746-750 T790M were 0.0006 µM and 0.0005 µM, respectively. Moreover, the 50% effective concentration (EC50) was determined as 0.0276 µM in experiment [1] and 0.266 µM in experiment [2] (Homo sapiens, NCI-H1975, 72 h).
With `CC(C)n1nc(N2CC(C(=O)N3CC[C@@H](O)C3)C2)c2cnc(Nc3ccnc(-c4cnn(S(=O)(=O)C5CC5)c4)n3)cc21` [Example 164, (R)-(1-(6-(2-(1-(Cyclopropylsulfonyl)-1H-pyrazol-4-yl)pyrimidin-4-ylamino)-1-isopropyl-1H-pyrazolo[4,3-c]pyridin-3-yl)azetidin-3-yl)(3-hydroxypyrrolidin-1-yl)methanone], the Ki at EGFR T790M L858R amounted to 0.0012 µM; on EGFR del746-750 T790M, 0.0011 µM. For the same compound, the EC50 was 0.43 µM in experiment [1] and 2.52 µM in experiment [2] (Homo sapiens, NCI-H1975, 72 h).
On the same counts, the results for `CC(C)n1nc(N2CCCC2=O)c2cnc(Nc3ccnc(N4CC[C@H](O)[C@H](F)C4)n3)cc21` (racemic) [Example 133, (±)-1-(6-(2-(cis-3-Fluoro-4-hydroxypiperidin-1-yl)pyrimidin-4-ylamino)-1-isopropyl-1H-pyrazolo[4,3-c]pyridin-3-yl)pyrrolidin-2-one] are 0.0017 µM, 0.0043 µM, 0.15 µM and 0.332 µM.
On the same counts, the results for `CCC(C)n1nc(N2CC3(COC3)C2)c2cnc(Nc3ccnc(N4CCC(C)(O)CC4)n3)cc21` (centres unmarked) [Example 202, 1-(4-((1-(sec-Butyl)-3-(2-oxa-6-azaspiro[3.3]heptan-6-yl)-1H-pyrazolo[4,3-c]pyridin-6-yl)amino)pyrimidin-2-yl)-4-methylpiperidin-4-ol] are 0.0028 µM, 0.0048 µM, 0.141 µM and 0.881 µM.
Consider `CC(C)n1nc(N2CC(C)(CO)C2)c2cnc(Nc3ccnc(-c4cnn(S(=O)(=O)C5CC5)c4)n3)cc21` [Example 122, (1-(6-(2-(1-(Cyclopropylsulfonyl)-1H-pyrazol-4-yl)pyrimidin-4-ylamino)-1-isopropyl-1H-pyrazolo[4,3-c]pyridin-3-yl)-3-methylazetidin-3-yl)methanol], for which the Ki at EGFR T790M L858R was 0.0012 µM; at EGFR del746-750 T790M, 0.001 µM. Moreover, the concentration for a half-maximal effect (EC50) came out at 0.0878 µM in experiment [1] and 0.62 µM in experiment [2] (Homo sapiens, NCI-H1975, 72 h).
On the same counts, the results for `CC(C)n1nc(N2CC(C)(O)C2)c2cnc(Nc3ccnc(-c4cnn(S(=O)(=O)C5CC5)c4)n3)cc21` [Example 82, 1-(6-(2-(1-(Cyclopropylsulfonyl)-1H-pyrazol-4-yl)pyrimidin-4-ylamino)-1-isopropyl-1H-pyrazolo[4,3-c]pyridin-3-yl)-3-methylazetidin-3-ol] are 0.0014 µM, 0.0012 µM, 0.108 µM and 0.289 µM.
With `CCC(C)n1nc(N2CC3(COC3)C2)c2cnc(Nc3ccnc(N4CC[C@@H](O)[C@@H](F)C4)n3)cc21` (single isomer, unassigned) [Example 197, (3S,4R)-1-(4-((1-((R*)-sec-Butyl)-3-(2-oxa-6-azaspiro[3.3]heptan-6-yl)-1H-pyrazolo[4,3-c]pyridin-6-yl)amino)pyrimidin-2-yl)-3-fluoropiperidin-4-ol], the Ki at EGFR T790M L858R worked out at 0.0012 µM; on EGFR del746-750 T790M, 0.0027 µM. For the same compound, the EC50 came out at 0.0128 µM in experiment [1] and 0.149 µM in experiment [2].
Take `CCC(C)n1nc(N2CCCC2=O)c2cnc(Nc3ccnc(N4CCC(C)(O)CC4)n3)cc21` (centres unmarked) [Example 204, 1-(1-(sec-Butyl)-6-((2-(4-hydroxy-4-methylpiperidin-1-yl)pyrimidin-4-yl)amino)-1H-pyrazolo[4,3-c]pyridin-3-yl)pyrrolidin-2-one]: the values for the Ki on EGFR T790M L858R and on EGFR del746-750 T790M were 0.0022 µM and 0.0045 µM, respectively. The concentration for a half-maximal effect (EC50) in experiment [1] amounted to 0.224 µM; in experiment [2] (Homo sapiens, NCI-H1975, 72 h), 0.569 µM.
On the same counts, the results for `CC(C)n1nc(N2CC3(CN(CC(F)(F)F)C3)C2)c2cnc(Nc3ccnc(-c4cnn(S(=O)(=O)C5CC5)c4)n3)cc21` [Example 126, N-(2-(1-(Cyclopropylsulfonyl)-1H-pyrazol-4-yl)pyrimidin-4-yl)-1-isopropyl-3-(6-(2,2,2-trifluoroethyl)-2,6-diazaspiro[3.3]heptan-2-yl)-1H-pyrazolo[4,3-c]pyridin-6-amine] are 0.0053 µM, 0.0046 µM, 0.0801 µM and 1.14 µM.
On the same counts, the results for `CC(C)n1nc(N2CCNC2=O)c2cnc(Nc3ccnc(N4CCC(O)C(F)C4)n3)cc21` (racemic) [Example 22, (±)-1-(6-((2-(cis-3-Fluoro-4-hydroxypiperidin-1-yl)pyrimidin-4-yl)amino)-1-isopropyl-1H-pyrazolo[4,3-c]pyridin-3-yl)imidazolidin-2-one] are 0.0054 µM, 0.0205 µM, 0.487 µM and > 3 µM.
On the same counts, the results for `CC(C)n1nc(N2CC(C(=O)N3CCOCC3)C2)c2cnc(Nc3ccnc(-c4cnn(S(=O)(=O)C5CC5)c4)n3)cc21` [Example 163, (1-(6-(2-(1-(Cyclopropylsulfonyl)-1H-pyrazol-4-yl)pyrimidin-4-ylamino)-1-isopropyl-1H-pyrazolo[4,3-c]pyridin-3-yl)azetidin-3-yl)(morpholino)methanone] are 0.0009 µM, 0.0009 µM, 0.0265 µM and 0.344 µM.
As to `CCC(C)n1nc(N2CC3(COC3)C2)c2cnc(Nc3ccnc(OCC(C)(C)S(C)(=O)=O)n3)cc21` (racemic) [Example 97, [1-(sec-Butyl)-3-(2-oxa-6-azaspiro[3.3]hept-6-yl)-1H-pyrazolo[4,3-c]pyridin-6-yl]-[2-(2-methanesulfonyl-2-methylpropoxy)pyrimidin-4-yl]amine], the figures for the Ki at EGFR T790M L858R and at EGFR del746-750 T790M were 0.0032 µM and 0.0052 µM, respectively. Besides, the EC50 in experiment [1] turned out to be 0.233 µM; in experiment [2] (Homo sapiens, NCI-H1975, 72 h), 1.13 µM.
